Our source for the IC50 values is patent publication US9255090B2, “Heterocyclyl derivatives and their use as prostaglandin D2 receptor modulators” (Actelion Pharmaceuticals Ltd., priority 2012, dated 2016).

One test has as its target hCRTH2 receptor (Homo sapiens (Human), UniProt Q9Y5Y4). Kind of test: hCRTH2 receptor membranes radioligand (3H-PGD2) displacement assay. Type of test: binding. The conditions noted are these: 3H-PGD2 radioligand displacement, HEK293-hCRTH2 membranes. The gist of the method: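 Compound was first mixed with buffer, then 3H-PGD2 was added at 2.5 nM, and the reaction was started with hCRTH2 membranes from HEK293 cells at 20 μg/well. After 90 min at room temperature, mixtures were filtered and washed with ice-cold buffer, and retained radioactivity was counted.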

Another test deals with eosinophils. The experiment in a line: Eosinophil shape change assay with human plasma. Type of test: cell-based. The conditions noted are these: Homo sapiens, Eosinophil, human plasma (50%), PGD2 100 nM activation, antagonistic activity. The procedure, abridged:
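Human polymorphonuclear cells stained with anti-CD49d-APC, combined with compound-preincubated human plasma (50% of final volume, 4×10^6 cells/ml) for 10 min at 37° C., then stimulated 5 min with 100 nM PGD2 and fixed. Flow cytometry scored percent eosinophils with increased forward scatter.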

The structures appear in SMILES notation.

Chain of hCRTH2 receptor (Q9Y5Y4 whole entry): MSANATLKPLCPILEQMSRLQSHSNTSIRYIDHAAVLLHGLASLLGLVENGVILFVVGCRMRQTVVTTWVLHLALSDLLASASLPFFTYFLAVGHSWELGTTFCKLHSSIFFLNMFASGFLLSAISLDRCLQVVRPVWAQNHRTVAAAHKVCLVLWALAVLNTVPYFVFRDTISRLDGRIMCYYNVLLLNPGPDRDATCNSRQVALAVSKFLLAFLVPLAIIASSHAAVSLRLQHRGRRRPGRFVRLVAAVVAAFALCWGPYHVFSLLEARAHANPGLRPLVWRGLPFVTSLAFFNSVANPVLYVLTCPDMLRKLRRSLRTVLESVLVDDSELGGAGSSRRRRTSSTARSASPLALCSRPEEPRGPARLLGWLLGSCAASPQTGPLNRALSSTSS

Consider `CCOc1ccc(CC(=O)O)cc1-c1ccc(F)c2c1CN(C(=O)OCc1cnccn1)CC2` [Example 365, 8-(5-Carboxymethyl-2-ethoxy-phenyl)-5-fluoro-3,4-dihydro-1H-isoquinoline-2-carboxylic acid pyrazin-2-ylmethyl ester], for which the figures for the IC50 at hCRTH2 receptor and in the test on eosinophils were 3.9 nM and 32 nM, respectively.
Consider `COc1ccc(CC(=O)O)cc1-c1ccc(F)c2c1CN(C(=O)C[C@@H](C)c1ccccc1)CC2` [Example 106, {3-[5-Fluoro-2-((R)-3-phenyl-butyryl)-1,2,3,4-tetrahydro-isoquinolin-8-yl]-4-methoxy-phenyl}-acetic acid], for which the IC50 stood at 10.4 nM on hCRTH2 receptor and 37 nM with eosinophils.
As for `CCOc1ccc(CC(=O)O)cc1-c1ccc(F)c2c1CN(C(=O)OCC1CCCC1)CC2` [Example 369, 8-(5-Carboxymethyl-2-ethoxy-phenyl)-5-fluoro-3,4-dihydro-1H-isoquinoline-2-carboxylic acid cyclopentylmethyl ester], the IC50 at hCRTH2 receptor was determined as 8.7 nM; in the test with eosinophils it was 266 nM.
`CCOc1ccc(CC(=O)O)cc1-c1ccc(F)c2c1CN(C(=O)CC1OCCc3ccccc31)CC2` (racemic) [Example 224]: the figures for the IC50 at hCRTH2 receptor and in the test on eosinophils were 8.2 nM and 10 nM, respectively.
In the case of `CCOc1ccc(CC(=O)O)cc1-c1ccc(F)c2c1CN(C(=O)OCc1ncc(C)cc1F)CC2` [Example 366, 8-(5-Carboxymethyl-2-ethoxy-phenyl)-5-fluoro-3,4-dihydro-1H-isoquinoline-2-carboxylic acid 3-fluoro-5-methyl-pyridin-2-ylmethyl ester], the IC50 on hCRTH2 receptor was 4.2 nM; in the test on eosinophils it was 65 nM.
Turning to `O=C(O)COc1ccc(OC(F)(F)F)c(-c2ccc(F)c3c2CN(C(=O)OCc2ccccc2)CC3)c1` [Example 162, 8-(5-Carboxymethoxy-2-trifluoromethoxy-phenyl)-5-fluoro-3,4-dihydro-1H-isoquinoline-2-carboxylic acid benzyl ester], the 50% inhibitory concentration (IC50) at hCRTH2 receptor is 2.47 nM; in the test with eosinophils it was 170 nM.
In the case of `COc1ccc(CC(=O)O)cc1-c1ccc(F)c2c1CN(C(=O)CC1CCCc3ccccc31)CC2` (racemic) [Example 263], the IC50 on hCRTH2 receptor is 4.9 nM; in the test with eosinophils, 64 nM.
`COc1cc(CC(=O)O)ccc1-c1ccc(F)c2c1CN(C(=O)C[C@@H](C)c1ccccc1)CC2` [Example 189, {4-[5-Fluoro-2-((R)-3-phenyl-butyryl)-1,2,3,4-tetrahydro-isoquinolin-8-yl]-3-methoxy-phenyl}-acetic acid]: the results for the IC50 on hCRTH2 receptor and in the test with eosinophils were 1.04 nM and 62 nM, respectively.
For `CCOc1cc(CC(=O)O)ccc1-c1ccc(F)c2c1CN(C(=O)OCc1ccccc1F)CC2` [Example 406, 8-(4-Carboxymethyl-2-ethoxy-phenyl)-5-fluoro-3,4-dihydro-1H-isoquinoline-2-carboxylic acid 2-fluoro-benzyl ester], the values for the IC50 on hCRTH2 receptor and in the test with eosinophils were 7.7 nM and 10 nM, respectively.
As for `CCOc1cc(CC(=O)O)ccc1-c1ccc(F)c2c1CN(C(=O)OCc1cc(Cl)ccc1F)CC2` [Example 408, 8-(4-Carboxymethyl-2-ethoxy-phenyl)-5-fluoro-3,4-dihydro-1H-isoquinoline-2-carboxylic acid 5-chloro-2-fluoro-benzyl ester], the results for the IC50 at hCRTH2 receptor and with eosinophils were 2 nM and 8 nM, respectively.
`COc1ccc(CC(=O)O)cc1-c1ccc(F)c2c1CN(C(=O)CCc1ccccc1)CC2` [Example 54, {3-[5-Fluoro-2-(3-phenyl-propionyl)-1,2,3,4-tetrahydro-isoquinolin-8-yl]-4-methoxy-phenyl}-acetic acid]: the IC50 on hCRTH2 receptor came out at 5.83 nM; in the test on eosinophils, 184 nM.
With `CCOc1ccc(CC(=O)O)cc1-c1ccc(F)c2c1CN(C(=O)CC1CCOc3ccccc31)CC2` (racemic) [Example 226], the IC50 at hCRTH2 receptor was 12.9 nM; with eosinophils it was 43 nM.
For the compound `CCOc1cc(CC(=O)O)ccc1-c1ccc(F)c2c1CN(C(=O)CC1OCCc3ccccc31)CC2` (stereo not shown) [Example 205, {3-Ethoxy-4-[5-fluoro-2-(2-isochroman-1-yl-acetyl)-1,2,3,4-tetrahydro-isoquinolin-8-yl]-phenyl}-acetic acid], the IC50 is 1 nM at hCRTH2 receptor and 17 nM in the test on eosinophils.
`COc1ccc(CC(=O)O)cc1-c1ccc(F)c2c1CN(C(=O)CCc1cn(C)c3ccccc13)CC2` [Example 62, (3-{5-Fluoro-2-[3-(1-methyl-1H-indol-3-yl)-propionyl]-1,2,3,4-tetrahydro-isoquinolin-8-yl}-4-methoxy-phenyl)-acetic acid]: the IC50 on hCRTH2 receptor stood at 4.74 nM; in the test with eosinophils, 106 nM.
In the case of `COc1ccc(CC(=O)O)cc1-c1cc(F)cc2c1CN(C(=O)[C@@H]1C[C@H]1c1ccccc1)CC2` [Example 34, {3-[6-Fluoro-2-((1R,2R)-2-phenyl-cyclopropanecarbonyl)-1,2,3,4-tetrahydro-isoquinolin-8-yl]-4-methoxy-phenyl}-acetic acid], the figures for the 50% inhibitory concentration (IC50) at hCRTH2 receptor and in the test on eosinophils were 2.7 nM and 25 nM, respectively.
In the case of `CCOc1ccc(CC(=O)O)cc1-c1ccc(F)c2c1CN(C(=O)NCc1ccccc1)CC2` [Example 438, [3-(2-Benzylcarbamoyl-5-fluoro-1,2,3,4-tetrahydro-isoquinolin-8-yl)-4-ethoxy-phenyl]-acetic acid], the IC50 at hCRTH2 receptor was determined as 3.7 nM; with eosinophils, 14 nM.
For the compound `COc1ccc(CC(=O)O)cc1-c1ccc(Cl)c2c1CN(C(=O)OCc1ccccc1)CC2` [Example 154, 8-(5-Carboxymethyl-2-methoxy-phenyl)-5-chloro-3,4-dihydro-1H-isoquinoline-2-carboxylic acid benzyl ester], the figures for the IC50 at hCRTH2 receptor and in the test with eosinophils were 5.9 nM and 307 nM, respectively.
On to `COc1cc(CC(=O)O)ccc1-c1ccc(F)c2c1CN(C(=O)CC(C)(C)c1ccc(F)cc1)CC2` [Example 358, (4-{5-Fluoro-2-[3-(4-fluoro-phenyl)-3-methyl-butyryl]-1,2,3,4-tetrahydro-isoquinolin-8-yl}-3-methoxy-phenyl)-acetic acid], for which the IC50 was determined as 1.1 nM at hCRTH2 receptor and 11 nM in the test with eosinophils.
Regarding `CC(C)Oc1ccc(OCC(=O)O)cc1-c1ccc(F)c2c1CN(C(=O)OCc1ccccc1)CC2` [Example 163, 8-(5-Carboxymethoxy-2-isopropoxy-phenyl)-5-fluoro-3,4-dihydro-1H-isoquinoline-2-carboxylic acid benzyl ester], the IC50 at hCRTH2 receptor was 7.94 nM; in the test with eosinophils, 141 nM.
For `CCOc1ccc(CC(=O)O)cc1-c1ccc(F)c2c1CN(C(=O)CC1CCCc3cccnc31)CC2` (racemic) [Example 350], the figures for the IC50 on hCRTH2 receptor and with eosinophils were 8.2 nM and 9 nM, respectively.
In the case of `CCOc1cc(CC(=O)O)ccc1-c1ccc(F)c2c1CN(C(=O)O[C@@H](C)c1ccccc1)CC2` [Example 389, 8-(4-Carboxymethyl-2-ethoxy-phenyl)-5-fluoro-3,4-dihydro-1H-isoquinoline-2-carboxylic acid (S)-1-phenyl-ethyl ester], the concentration for half-maximal inhibition (IC50) amounted to 16.7 nM at hCRTH2 receptor and 122 nM in the test with eosinophils.
Consider `O=C(O)Cc1cc2c(c(-c3ccc(F)c4c3CN(C(=O)OCc3ccccc3)CC4)c1)OCCO2` [Example 168, 8-(7-Carboxymethyl-2,3-dihydro-benzo[1,4]dioxin-5-yl)-5-fluoro-3,4-dihydro-1H-isoquinoline-2-carboxylic acid benzyl ester], for which the 50% inhibitory concentration (IC50) was 17.9 nM on hCRTH2 receptor and 133 nM in the test on eosinophils.
For `COc1ccc(CC(=O)O)cc1-c1ccc(F)c2c1CN(C(=O)[C@@H]1C[C@H]1c1ccccc1)CC2` (racemic) [Example 60, (±)-{3-[5-Fluoro-2-(trans-2-phenyl-cyclopropanecarbonyl)-1,2,3,4-tetrahydro-isoquinolin-8-yl]-4-methoxy-phenyl}-acetic acid], in that order: 2.64 nM and 13 nM.
Consider `CC(C)Oc1cc(CC(=O)O)ccc1-c1ccc(F)c2c1CN(C(=O)OCc1ccccc1)CC2` [Example 217, 8-(4-Carboxymethyl-2-isopropoxy-phenyl)-5-fluoro-3,4-dihydro-1H-isoquinoline-2-carboxylic acid benzyl ester], for which the figures for the IC50 on hCRTH2 receptor and in the test on eosinophils were 2.3 nM and 46 nM, respectively.
As to `CCOc1ccc(CC(=O)O)cc1-c1ccc(F)c2c1CN(C(=O)OCc1ccccc1)CC2` [Example 195, 8-(5-Carboxymethyl-2-ethoxy-phenyl)-5-fluoro-3,4-dihydro-1H-isoquinoline-2-carboxylic acid benzyl ester], the IC50 on hCRTH2 receptor turned out to be 1.06 nM; in the test on eosinophils it was 21 nM.
With `CCOc1ccc(CC(=O)O)cc1-c1ccc(F)c2c1CN(C(=O)C(C)Cc1ccccn1)CC2` (racemic) [Example 351], the IC50 is 3.1 nM at hCRTH2 receptor and 26 nM in the test on eosinophils.
As to `CCOc1ccc(CC(=O)O)cc1-c1ccc(F)c2c1CN(C(=O)O[C@@H](C)c1ccccc1)CC2` [Example 368, 8-(5-Carboxymethyl-2-ethoxy-phenyl)-5-fluoro-3,4-dihydro-1H-isoquinoline-2-carboxylic acid (S)-1-phenyl-ethyl ester], the results for the IC50 on hCRTH2 receptor and in the test on eosinophils were 5.5 nM and 46 nM, respectively.
As for `COc1cc(CC(=O)O)ccc1-c1ccc(F)c2c1CN(C(=O)CCCc1ccccc1F)CC2` [Example 185, (4-{5-Fluoro-2-[4-(2-fluoro-phenyl)-butyryl]-1,2,3,4-tetrahydro-isoquinolin-8-yl}-3-methoxy-phenyl)-acetic acid], the IC50 turned out to be 1.28 nM on hCRTH2 receptor and 97 nM in the test on eosinophils.
Consider `COc1cc(CC(=O)O)ccc1-c1ccc(F)c2c1CN(C(=O)CC(C)(C)c1ccccc1)CC2` [Example 188, {4-[5-Fluoro-2-(3-methyl-3-phenyl-butyryl)-1,2,3,4-tetrahydro-isoquinolin-8-yl]-3-methoxy-phenyl}-acetic acid], for which the IC50 amounted to 0.53 nM at hCRTH2 receptor and 8 nM in the test on eosinophils.
